Assay results from patent US10604523B2, “1-aryl-4-methyl-[1,2,4]triazolo[4,3-a]quinoxaline derivatives” (Janssen Pharmaceutica NV, priority 2011, dated 2020).
Read-outs that look alike come from different tables or passages of the source.

What was measured:
[1] = target: T1, Human recombinant PDE2A (hPDE2A) (Homo sapiens, UniProt O00408); experiment: In vitro assay PDE2A (SPA, 3H-cGMP); format: biochemical; conditions: read-out: pIC50 PDE2 (converted)
T1 construct: made in house; host or cells: Sf9 insect cells (baculovirus)
Protocol: Tested compounds were dissolved and diluted in 100% DMSO to a concentration 100 fold of the final concentration in the assay. Compound dilutions (0.4 μl) were added in 384 well plates to 20 μl of incubation buffer (50 mM Tris pH 7.8, 8.3 mM MgCl2, 1.7 mM EGTA). 10 μl of hPDE2A enzyme in incubation buffer was added and the reaction was started by addition of 10 μl substrate to a final concentration of 10 μM cGMP and 0.01 μCi ^3H-cGMP. The reaction was incubated for 45 minutes at room temperature. […] After sedimentation of the beads during 30 minutes the radioactivity was measured in a Perkin Elmer Topcount scintillation counter and results were expressed as cpm. For blanc values the enzyme was omitted from the reaction and replaced by incubation buffer. Control values were obtained by addition of a final concentration of 1% DMSO instead of compound.

[2] = target: T2, Rat recombinant PDE10A (rPDE10A2) (Rattus norvegicus, UniProt Q9QYJ6); experiment: In vitro assay PDE10A (SPA, 3H-cAMP); format: biochemical; conditions: for IC50: read-out: PIC50 PDE10 (converted)
T2 construct: made in house; host or cells: Sf9 insect cells (baculovirus)
T2 sequence (Q9QYJ6 1-794): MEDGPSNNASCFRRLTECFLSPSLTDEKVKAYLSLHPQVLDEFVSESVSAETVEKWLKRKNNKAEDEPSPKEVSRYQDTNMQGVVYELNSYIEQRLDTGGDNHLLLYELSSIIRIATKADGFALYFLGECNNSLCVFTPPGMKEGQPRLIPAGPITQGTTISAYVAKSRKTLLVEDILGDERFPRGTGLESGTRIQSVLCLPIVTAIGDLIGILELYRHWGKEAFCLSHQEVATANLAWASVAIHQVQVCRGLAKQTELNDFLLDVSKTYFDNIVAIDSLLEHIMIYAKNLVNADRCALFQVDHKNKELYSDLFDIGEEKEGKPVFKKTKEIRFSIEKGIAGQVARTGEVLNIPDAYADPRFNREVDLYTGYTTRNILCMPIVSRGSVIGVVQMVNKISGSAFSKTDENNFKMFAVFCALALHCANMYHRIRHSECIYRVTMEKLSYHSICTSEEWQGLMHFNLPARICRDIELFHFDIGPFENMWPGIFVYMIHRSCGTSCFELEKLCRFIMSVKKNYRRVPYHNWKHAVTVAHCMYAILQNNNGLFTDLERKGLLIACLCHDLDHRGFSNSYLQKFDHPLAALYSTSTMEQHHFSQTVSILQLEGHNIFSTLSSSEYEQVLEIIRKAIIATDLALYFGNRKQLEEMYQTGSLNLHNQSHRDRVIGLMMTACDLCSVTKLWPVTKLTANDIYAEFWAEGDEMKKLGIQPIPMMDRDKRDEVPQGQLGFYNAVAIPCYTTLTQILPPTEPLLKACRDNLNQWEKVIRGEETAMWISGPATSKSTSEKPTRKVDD

[3] = system: Apomorphine-induced agitation; experiment: Reversal of Apomorphine-induced Agitation in Rats (APO); format: in vivo, rat; conditions: for PO Max effect (cumulative agitation score over 60 min) / SC Max effect (cumulative agitation score over 60 min): apomorphine 1.0 mg/kg i.v.; for PO LAD (lowest active dose) / SC LAD (lowest active dose): lowest dose at which ≥67% tested animals respond; for SC Dose at max effect / SC Max effect (cumulative agitation score over 60 min) / SC LAD (lowest active dose): subcutaneous route
Protocol: Apomorphine (1.0 mg/kg, i.v.)-induced agitation was scored every 5 min over the first hour after injection of apomorphine. The score system was: (3) pronounced, (2) moderate, (1) slight, and (0) absent. […] For the present purpose, the cumulative agitation score over the whole 60-min observation period was used as a measure to describe the maximum effect (Max effect).

[4] = -log IC50 expressed in mol/L, rPDE10A2, 60 nM cAMP

T1 sequence (O00408 whole entry): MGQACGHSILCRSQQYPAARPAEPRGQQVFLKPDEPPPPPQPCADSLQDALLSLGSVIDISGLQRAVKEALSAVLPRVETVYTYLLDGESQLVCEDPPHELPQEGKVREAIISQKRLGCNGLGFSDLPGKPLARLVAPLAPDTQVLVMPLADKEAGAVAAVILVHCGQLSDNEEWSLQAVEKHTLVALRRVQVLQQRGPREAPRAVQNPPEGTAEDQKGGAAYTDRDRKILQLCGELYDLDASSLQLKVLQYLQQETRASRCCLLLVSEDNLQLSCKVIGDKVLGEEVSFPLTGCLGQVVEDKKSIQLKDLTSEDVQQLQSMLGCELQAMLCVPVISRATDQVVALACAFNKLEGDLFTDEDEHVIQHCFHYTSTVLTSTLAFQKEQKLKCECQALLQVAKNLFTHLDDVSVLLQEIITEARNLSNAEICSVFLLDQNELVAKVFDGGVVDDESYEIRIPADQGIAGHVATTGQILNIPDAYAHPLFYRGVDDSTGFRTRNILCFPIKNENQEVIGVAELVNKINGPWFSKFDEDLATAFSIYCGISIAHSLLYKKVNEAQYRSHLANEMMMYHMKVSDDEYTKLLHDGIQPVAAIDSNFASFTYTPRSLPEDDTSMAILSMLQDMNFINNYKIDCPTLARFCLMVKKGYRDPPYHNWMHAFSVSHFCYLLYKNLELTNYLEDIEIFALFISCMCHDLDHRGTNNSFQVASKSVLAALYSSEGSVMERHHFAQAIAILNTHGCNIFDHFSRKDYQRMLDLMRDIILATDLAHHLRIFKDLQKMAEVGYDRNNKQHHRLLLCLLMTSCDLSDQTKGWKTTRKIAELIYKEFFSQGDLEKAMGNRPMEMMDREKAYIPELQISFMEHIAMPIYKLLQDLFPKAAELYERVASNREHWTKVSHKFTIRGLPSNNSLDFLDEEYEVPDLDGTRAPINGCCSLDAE

Row | SMILES | IC50 [1] | IC50 [2] | further results
1 | CCNC(=O)c1ccc2nc(C)c3nnc(-c4cccnc4OC)n3c2c1 [Compound B-123] | 27.5 nM | 417 nM | 
2 | CCOC(=O)c1ccc2c(c1)nc(C)c1nnc(-c3ccccc3Cl)n12 [Compound B-1b, ethyl 1-(2-chlorophenyl)-4-methyl[1,2,4]triazolo[4,3-a]quinoxaline-7-carboxylate] | 51.3 nM | 447 nM | 
3 | Cc1cncc(-c2nnc3c(C)nc4ccccc4n23)c1 [Compound B-177] | 162 nM |  | 
4 | CCCOc1ccc(Cl)c(-c2nnc3c(C)nc4ccc(CN5CCC(O)CC5)cc4n23)c1 [Compound B-129] | 28.8 nM | 891 nM | 
5 | CCCCOc1cncc(-c2nnc3c(C)nc4ccc(CN5CCC(F)CC5)cc4n23)c1 [Compound B-201] | 95.5 nM | 5130 nM | 
6 | Cc1nc2ccc(CNC3CCC3)cc2n2c(-c3cncc(OCC4CC4)c3)nnc12 [Compound B-207] | 240 nM | > 10000 nM | 
7 | COc1ccc(Cl)c(-c2nnc3c(C)nc4ccc(Br)cc4n23)c1 [Compound B-69] | 6.17 nM | 77.6 nM | 
8 | CCNC(=O)c1ccc2nc(C)c3nnc(-c4ccc(C)nc4)n3c2c1 [Compound B-182] | 240 nM | 4170 nM | 
9 | CCCCOc1cncc(-c2nnc3c(C)nc4ccc(CNCC5CC5)cc4n23)c1 [Compound B-156] | 61.7 nM | 7940 nM | 
10 | CCOCc1cncc(-c2nnc3c(C)nc4ccc(CN(C)C)cc4n23)c1 [Compound B-212] | 355 nM | 6170 nM | 
11 | CCCOc1ccc(Cl)c(-c2nnc3c(C)nc4ccc(CN5CCN(C)CC5)cc4n23)c1 [Compound B-137] | 33.1 nM | 1000 nM | 
12 | COCCC1CN(Cc2ccc3nc(C)c4nnc(-c5ccccc5Cl)n4c3c2)CCO1 (stereo not shown) [Compound B-106] | 19.5 nM | 89.1 nM | 
13 | CCNC(=O)c1ccc2c(c1)nc(C)c1nnc(-c3cccnc3C)n12 [Compound B-169] | 102 nM | 2820 nM | 
14 | Cc1nc2ccc(N(C)C)cc2n2c(-c3ccccc3Cl)nnc12 [Compound B-87] | 11.2 nM | 26.9 nM | 
15 | Cc1nc2ccc(N3CCN(C)CC3)cc2n2c(-c3cc(OC(C)C)ccc3Cl)nnc12 [Compound B-115] | 24.5 nM | 1120 nM | 
16 | COCCCc1cncc(-c2nnc3c(C)nc4ccc(CN5CCOCC5)cc4n23)c1 [Compound B-204] | 132 nM | 8130 nM | 
17 | Cc1nc2ccc(OCCc3cccnc3)cc2n2c(-c3cc(OC(C)C)ccc3Cl)nnc12 [Compound B-146] | 40.7 nM | 1020 nM | 
18 | CCCCOc1ccc(Cl)c(-c2nnc3c(C)nc4ccc(CN5CCC(F)CC5)cc4n23)c1 [Compound B-132] | 29.5 nM | 1780 nM | 
19 | CCCCOc1cncc(-c2nnc3c(C)nc4ccc(CNC5CCC5)cc4n23)c1 [Compound B-155] | 60.3 nM | 9120 nM | 
20 | CCCCOc1cncc(-c2nnc3c(C)nc4ccc(Br)cc4n23)c1 [Compound B-7, 8-Bromo-1-(5-butoxypyridin-3-yl)-4-methyl[1,2,4]triazolo[4,3-a]quinoxaline] | 18.6 nM | 3390 nM | 
21 | Cc1nc2ccc(NC3CCN(C)CC3)cc2n2c(-c3ccccc3Cl)nnc12 [Compound B-147] | 44.7 nM | 87.1 nM | 
22 | Cc1nc2ccc(CN3CCC(O)CC3)cc2n2c(-c3cc(OC(C)C)ccc3Cl)nnc12 [Compound B-136] | 31.6 nM | 1260 nM | 
23 | Cc1nc2ccc(C(=O)C3CC3)cc2n2c(-c3ccccc3Cl)nnc12 [Compound B-144] | 4.47 nM | 31.6 nM | 
24 | CCCCOc1ccc(Cl)c(-c2nnc3c(C)nc4ccc(N5CCN(C)CC5)cc4n23)c1 [Compound B-26, 1-(5-Butoxy-2-chlorophenyl)-4-methyl-8-(4-methylpiperazin-1-yl) [1,2,4]triazolo-[4,3-a]quinoxaline] | 17.4 nM | 1260 nM | 

Row | SMILES | IC50 [1] | IC50 [2] | further results
25 | Cc1nc2ccc(Br)cc2n2c(-c3ccccc3OC(F)(F)F)nnc12 [Compound B-159] | 60.3 nM | 347 nM | 
26 | Cc1nc2ccc(CN3CCOCC3)cc2n2c(-c3cncc(OCCF)c3)nnc12 [Compound B-195] | 42.7 nM | 3550 nM | 
27 | CCCOc1ccc(Cl)c(-c2nnc3c(C)nc4ccc(OCCc5cccnc5)cc4n23)c1 [Compound B-116] | 24.5 nM | 513 nM | 
28 | Cc1nc2ccc(C(=O)OCc3ccccc3)cc2n2c(-c3ccccc3)nnc12 [Compound B-8, Benzyl 4-methyl-1-phenyl[1,2,4]triazolo[4,3-a]quinoxaline-8-carboxylate] | 20.4 nM | 380 nM | 
29 | Cc1nc2ccccc2n2c(-c3cncc(Cl)c3)nnc12 [Compound B-183] | 316 nM |  | 
30 | CCCCOc1ccc(Cl)c(-c2nnc3c(C)nc4ccc(CNC5CCC5)cc4n23)c1 [Compound B-126] | 28.2 nM | 2450 nM | 
31 | CCCCOc1ccc(Cl)c(-c2nnc3c(C)nc4ccc(CN5CCN(C)CC5)cc4n23)c1 [Compound B-160] | 60.3 nM | 2450 nM | 
32 | Cc1nc2ccc(CN3CCOCC3)cc2n2c(-c3cncc(OCCCF)c3)nnc12 [Compound B-196] | 64.6 nM | 8710 nM | 
33 | CCOCc1cncc(-c2nnc3c(C)nc4ccc(CNC5CCC5)cc4n23)c1 [Compound B-213] | 372 nM | > 10000 nM | 
34 | Cc1nc2ccc(N)cc2n2c(-c3ccccc3Cl)nnc12 [Compound B-27, 1-(2-Chlorophenyl)-4-methyl[1,2,4]triazolo[4,3-a]quinoxalin-8-amine] | 2.34 nM | 29.5 nM | 
35 | Cc1ccncc1-c1nnc2c(C)nc3ccc(C(=O)C4CC4)cc3n12 [Compound B-24, Cyclopropyl [4-methyl-1-(4-methylpyridin-3-yl) [1,2,4]triazolo[4,3-a]quinoxalin-8-yl]methanone] | 39.8 nM | 525 nM | 
36 | CCCOc1ccc(Cl)c(-c2nnc3c(C)nc4ccc(N5CCN(C)CC5)cc4n23)c1 [Compound B-117] | 25.1 nM | 912 nM | 
37 | Cc1nc2ccc(CN3CCCC3)cc2n2c(-c3cncc(OCC4CC4)c3)nnc12 [Compound B-208] | 275 nM | > 10000 nM | 
38 | Cc1nc2ccc(CN3CCC(F)CC3)cc2n2c(-c3cncc(OCC4CC4)c3)nnc12 [Compound B-199] | 89.1 nM | 3890 nM | 
39 | Cc1nc2ccc(CN3CCC(N(C)C)CC3)cc2n2c(-c3ccccc3Cl)nnc12 [Compound B-157] | 57.5 nM | 282 nM | 
40 | Cc1ncccc1-c1nnc2c(C)nc3ccccc3n12 [Compound B-174] | 138 nM |  | 
41 | Cc1nc2ccc(C(=O)NCc3ccccn3)cc2n2c(-c3ccccc3Cl)nnc12 [Compound B-35] |  |  | IC50 [2, 4]: 8.32 nM; PO Dose at Max Effect [3]: 10 mg/kg; PO Max effect (cumulative agitation score over 60 min) [3]: 22; PO LAD (lowest active dose) [3]: > 10 mg/kg
42 | Cc1nc2ccc(CN3CCCC(O)C3)cc2n2c(-c3ccccc3Cl)nnc12 (stereo not shown) [Compound B-62] |  | 19.5 nM | SC Dose at max effect [3]: 10 mg/kg; SC Max effect (cumulative agitation score over 60 min) [3]: 21; SC LAD (lowest active dose) [3]: > 10 mg/kg
43 | Cc1nc2ccc(CN3CCC(O)C3)cc2n2c(-c3ccccc3Cl)nnc12 (stereo not shown) [Compound B-57] |  | 18.2 nM | SC Dose at max effect [3]: 10 mg/kg; SC Max effect (cumulative agitation score over 60 min) [3]: 22; SC LAD (lowest active dose) [3]: > 10 mg/kg
44 | CCCOc1ccc(Cl)c(-c2nnc3c(C)nc4ccc(CN5CCOCC5)cc4n23)c1 [Compound B-72] |  |  | PIC50 PDE10 [2, 4]: 6.49; SC Dose at max effect [3]: 10 mg/kg; SC Max effect (cumulative agitation score over 60 min) [3]: 23; SC LAD (lowest active dose) [3]: > 10 mg/kg
45 | CCNC(=O)c1ccc2nc(C)c3nnc(-c4ccccc4)n3c2c1 [Compound B-65] |  | 251 nM | PO Dose at Max Effect [3]: 10 mg/kg; PO Max effect (cumulative agitation score over 60 min) [3]: 21; PO LAD (lowest active dose) [3]: > 10 mg/kg
46 | COC1CCN(Cc2ccc3nc(C)c4nnc(-c5ccccc5Cl)n4c3c2)CC1 [Compound B-93] |  |  | PIC50 PDE10 [2, 4]: 7.41; SC Dose at max effect [3]: 10 mg/kg; SC Max effect (cumulative agitation score over 60 min) [3]: 7; SC LAD (lowest active dose) [3]: 10 mg/kg
47 | Cc1nc2ccc(C(=O)NCCN3CCOCC3)cc2n2c(-c3ccccc3Cl)nnc12 [Compound B-36] |  | 11.2 nM | SC Dose at max effect [3]: 10 mg/kg; SC Max effect (cumulative agitation score over 60 min) [3]: 21; SC LAD (lowest active dose) [3]: > 10 mg/kg
48 | CCOc1ccc(Cl)c(-c2nnc3c(C)nc4ccc(CN5CCOCC5)cc4n23)c1 [Compound B-70] |  |  | PIC50 PDE10 [2, 4]: 6.58; SC Dose at max effect [3]: 10 mg/kg; SC Max effect (cumulative agitation score over 60 min) [3]: 24; SC LAD (lowest active dose) [3]: > 10 mg/kg
